The numbers were not newly measured in US20190316065A1, “NATURALLY-DERIVED ANTIMICROBIAL CLEANING SOLUTIONS” (ProNatural Brands LLC, priority 2018, published 2019), which cites them from elsewhere.

For the series the following is noted: standard pKa.

On to `O=C(O)CC(O)(CC(=O)O)C(=O)O` [citric acid], for which the pKa1 is listed as 3.1, the pKa2 is on record as 4.8 and the pKa3 entry is on record as “≈ 6.4”.
